Data set [1] can be described thus: Evaluation of solubility of acids in glycerol (visual). The following applies: for Solubility (-): 10 mg of acid in 1,000 mg of glycerol at 25°C, visual, 5 grades. Type of data set: physicochemical. The method, then:
The organic acid is preferably soluble in the aerosol former at 25°C. […] When the resulting solution is colorless and transparent or the majority of the organic acid added is invisible due to dissolution, the organic acid is determined as "soluble." Since a solution of a polyol, such as glycerol, is difficult to measure at room temperature due to the high viscosity, it is desirable to observe the solution after appropriately dissolving once at a high temperature, followed by cooling to room temperature.
The evaluation was made by 5 grades from 1 of "no dissolution" to 5 of "complete dissolution." Herein, a grade of 3 or higher was regarded as "soluble."

Data set [2] in a line: First acid dissociation constant of the added acid. In kind it is physicochemical. The conditions noted are these: in water at 25°C. The method, then: The organic acid preferably has a first acid dissociation constant of preferably 4.0 to 5.0, more preferably 4.1 to 4.8, and further preferably 4.2 to 4.5. […] In the present invention, the term "first acid dissociation constant" indicates an acid dissociation constant in water at 25°C and is a value measured, for example, by acid-base titration, absorption spectroscopy, or capillary electrophoresis.

For `CC(=O)C(=O)O` [Pyruvic acid], in data set [1], the “Solubility (-)” value worked out at 5. Moreover, in data set [2], the “First acid dissociation constant (-)” value came out at 2.50.
Take `O=C(O)CCCCC(=O)O` [Adipic acid]: the “First acid dissociation constant (-)” value in data set [2] worked out at 4.42.
`CC(=O)CCC(=O)O` [Levulinic acid]: the “Solubility (-)” value in data set [1] was found to be 5. In addition, the “Solubility in glycerol as an aerosol former (in words)” value in data set [1] (25°C) was “soluble”. Besides, in data set [2], the “First acid dissociation constant (-)” value is on record as 4.44.
Regarding `CCCCCCCCCCCCCCCCCCC(=O)O` [Nonadecanoic acid], the “Solubility (-)” value in data set [1] was 1. In data set [2], the “First acid dissociation constant (-)” value worked out at 5.10.
